Toxic doses and inconclusive results are not listed. No stated cut-off is given here; in the data, active means T/C of 150% or more; inactive means T/C below 125%. Square brackets hold non-standard residues; d marks the D form. Peptide text beside a SMILES is read from it. ξ: configuration not given here. ξV = CC(C)C(N)C(=O)O
System: L1210 leukemia ip in BDF1 mice, survival T/C
Assay: NCI In Vivo Anticancer Drug Screen. Data for tumor model L1210 Leukemia (intraperitoneal) in B6D2F1 (BDF1) mice
Conditions: endpoint: mean survival time, higher = longer survival
Method in brief: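 Survival endpoint. Drug-treated group vs vehicle group, expressed as T divided by C. Tumor passaged by transplantation.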

[1] = dose: 100.0 mg/kg/injection, schedule: Q01DX001 (ip), vehicle: saline
[2] = dose: 200.0 mg/kg/injection, schedule: Q01DX001 (ip), vehicle: saline
[3] = dose: 100.0 mg/kg/injection, schedule: Q04DX003 (ip), vehicle: saline with Tween-80
[4] = dose: 400.0 mg/kg/injection, schedule: Q04DX003 (ip), vehicle: saline with Tween-80
[5] = dose: 100.0 mg/kg/injection, schedule: Q04DX003 (ip), vehicle: saline
[6] = dose: 200.0 mg/kg/injection, schedule: Q04DX003 (ip), vehicle: saline
[7] = dose: 400.0 mg/kg/injection, schedule: Q04DX003 (ip), vehicle: saline

Measured: T/C

CN1CCCN(C(c2ccccc2)c2ccc(Cl)cc2)CC1 (stereo not given)
inactive: dose: 7.81 mg/kg/injection, schedule: Q01DX009 (ip), vehicle: saline 96 % of control | dose: 15.62 mg/kg/injection, schedule: Q01DX009 (ip), vehicle: saline 105 % of control | dose: 31.25 mg/kg/injection, schedule: Q01DX009 (ip), vehicle: saline 96 % of control

CN(C=O)C(=S)[S-].CN(C=O)C(=S)[S-].CN(C=O)C(=S)[S-].O=C(Nc1ccc(S(=O)(=O)Nc2ccc(N=Nc3ccc4nc([S-])sc4c3)cc2)cc1)C(N1CC1)(N1CC1)N1CC1.[Pd]
inactive: dose: 6.25 mg/kg/injection, schedule: Q01DX009 (ip), vehicle: saline 109 % of control | dose: 6.25 mg/kg/injection, schedule: Q04DX003 (ip), vehicle: saline 108 % of control | dose: 12.5 mg/kg/injection, schedule: Q01DX009 (ip), vehicle: saline 101 % of control | dose: 12.5 mg/kg/injection, schedule: Q04DX003 (ip), vehicle: saline 106 % of control | dose: 25.0 mg/kg/injection, schedule: Q01DX009 (ip), vehicle: saline 98 % of control | dose: 25.0 mg/kg/injection, schedule: Q04DX003 (ip), vehicle: saline 103 % of control

O=S(=O)(F)c1cccc(C[P+](c2ccccc2)(c2ccccc2)c2ccccc2)c1
inactive: dose: 25.0 mg/kg/injection, schedule: Q01DX009 (ip), vehicle: saline with Tween-80 95 % of control | dose: 50.0 mg/kg/injection, schedule: Q01DX009 (ip), vehicle: saline with Tween-80 101 % of control | dose: 100.0 mg/kg/injection, schedule: Q04DX003 (ip), vehicle: acetone 94 % of control

CCSc1ncnc2nc(C)[nH]c12
inactive: [1] 100 % of control | [2] 101 % of control

Nc1nc(N)c(C=O)c(Nc2ccc(I)cc2)n1
inactive: dose: 50.0 mg/kg/injection, schedule: Q01DX001 (ip), vehicle: saline 100 % of control | [1] 100 % of control | [2] 123 % of control | dose: 400.0 mg/kg/injection, schedule: Q01DX001 (ip), vehicle: saline 117 % of control

O=C1c2ccccc2-c2nc3ccccc3nc21
inactive: dose: 45.0 mg/kg/injection, schedule: Q01DX009 (ip), vehicle: Klucel (hydroxypropylcellulose) (HPC) 95 % of control | dose: 90.0 mg/kg/injection, schedule: Q01DX009 (ip), vehicle: Klucel (hydroxypropylcellulose) (HPC) 93 % of control | dose: 100.0 mg/kg/injection, schedule: Q04DX003 (ip), vehicle: saline sonified 101 % of control | dose: 180.0 mg/kg/injection, schedule: Q01DX009 (ip), vehicle: Klucel (hydroxypropylcellulose) (HPC) 91 % of control | dose: 200.0 mg/kg/injection, schedule: Q04DX003 (ip), vehicle: saline sonified 97 % of control | dose: 400.0 mg/kg/injection, schedule: Q04DX003 (ip), vehicle: saline sonified 90 % of control

CC(C)C1=CC2=CCC3C(C)(C#N)CCCC3(C)C2CC1CC#N (stereo not given)
inactive: [3] 88 % of control | [4] 92 % of control

CC(=O)OCC(=O)[C@@]1(O)CC[C@H]2[C@@H]3CCC4=CC(=O)CC[C@]4(C)[C@H]3[C@@H](O)C[C@@]21C
inactive: dose: 1.13 mg/kg/injection, schedule: Q01DX Z (sc), vehicle: steriod suspending solution 102 % of control | dose: 2.25 mg/kg/injection, schedule: Q01DX Z (sc), vehicle: steriod suspending solution 107 % of control | dose: 4.5 mg/kg/injection, schedule: Q01DX Z (sc), vehicle: steriod suspending solution 102 % of control | dose: 9.0 mg/kg/injection, schedule: Q01DX Z (sc), vehicle: steriod suspending solution 101 % of control | dose: 25.0 mg/kg/injection, schedule: Q01DX Z (sc), vehicle: steriod suspending solution 87 % of control | dose: 50.0 mg/kg/injection, schedule: Q01DX Z (sc), vehicle: steriod suspending solution 102 % of control | dose: 100.0 mg/kg/injection, schedule: Q01DX009 (ip), vehicle: saline with Tween-80 105 % of control | dose: 100.0 mg/kg/injection, schedule: Q01DX Z (sc), vehicle: steriod suspending solution 106 % of control | [3] 104 % of control | dose: 200.0 mg/kg/injection, schedule: Q01DX009 (ip), vehicle: saline with Tween-80 104 % of control | dose: 200.0 mg/kg/injection, schedule: Q01DX009 (sc), vehicle: other 104 % of control | dose: 200.0 mg/kg/injection, schedule: Q01DX Z (sc), vehicle: steriod suspending solution 110 % of control | dose: 200.0 mg/kg/injection, schedule: Q04DX003 (ip), vehicle: saline with Tween-80 99 % of control | dose: 400.0 mg/kg/injection, schedule: Q01DX001 (sc), vehicle: steriod suspending solution 92 % of control | dose: 400.0 mg/kg/injection, schedule: Q01DX009 (ip), vehicle: saline with Tween-80 98 % of control | dose: 400.0 mg/kg/injection, schedule: Q01DX009 (sc), vehicle: other 102 % of control | [4] 100 % of control | dose: 600.0 mg/kg/injection, schedule: Q01DX009 (sc), vehicle: other 96 % of control | dose: 800.0 mg/kg/injection, schedule: Q01DX001 (sc), vehicle: steriod suspending solution 97 % of control | dose: 800.0 mg/kg/injection, schedule: Q01DX009 (sc), vehicle: other 101 % of control | dose: 1200.0 mg/kg/injection, schedule: Q01DX001 (sc), vehicle: steriod suspending solution 101 % of control | dose: 1600.0 mg/kg/injection, schedule: Q01DX001 (sc), vehicle: steriod suspending solution 100 % of control

CN(C)c1ccccc1C(=O)N/N=C\c1ccc(-c2ccccc2)cc1
inactive: dose: 100.0 mg/kg/injection, schedule: Q04DX002 (ip), vehicle: Klucel (hydroxypropylcellulose) (HPC) 87 % of control | dose: 200.0 mg/kg/injection, schedule: Q04DX002 (ip), vehicle: Klucel (hydroxypropylcellulose) (HPC) 100 % of control | dose: 400.0 mg/kg/injection, schedule: Q04DX002 (ip), vehicle: Klucel (hydroxypropylcellulose) (HPC) 117 % of control

O=[N+]([O-])c1sc2ccccc2c1Br
inactive: dose: 5.0 mg/kg/injection, schedule: Q04DX002 (ip), vehicle: Klucel (hydroxypropylcellulose) (HPC) 101 % of control | dose: 10.0 mg/kg/injection, schedule: Q04DX002 (ip), vehicle: Klucel (hydroxypropylcellulose) (HPC) 97 % of control | dose: 20.0 mg/kg/injection, schedule: Q04DX002 (ip), vehicle: Klucel (hydroxypropylcellulose) (HPC) 97 % of control

O=S(=O)(ON/N=C/c1cc2ccccc2c2ccccc12)c1ccccc1
inactive: dose: 75.0 mg/kg/injection, schedule: Q01DX009 (ip), vehicle: Klucel (hydroxypropylcellulose) (HPC) 96 % of control | dose: 150.0 mg/kg/injection, schedule: Q01DX009 (ip), vehicle: Klucel (hydroxypropylcellulose) (HPC) 96 % of control | dose: 300.0 mg/kg/injection, schedule: Q01DX009 (ip), vehicle: Klucel (hydroxypropylcellulose) (HPC) 98 % of control

CC(C)C(NC(=O)CNC(=O)CN)C(=O)O (stereo not drawn) (H-Gly-Gly-[ξV]-OH)
inactive: dose: 100.0 mg/kg/injection, schedule: Q01DX009 (ip), vehicle: saline 104 % of control | [5] 106 % of control | dose: 200.0 mg/kg/injection, schedule: Q01DX009 (ip), vehicle: saline 102 % of control | [6] 103 % of control | dose: 400.0 mg/kg/injection, schedule: Q01DX009 (ip), vehicle: saline 102 % of control | [7] 106 % of control

COc1ccc(/C=C/C(=O)c2ccc(OC)cc2)cc1
inactive: dose: 100.0 mg/kg/injection, schedule: Q01DX009 (ip), vehicle: Klucel (hydroxypropylcellulose) (HPC) 100 % of control | dose: 100.0 mg/kg/injection, schedule: Q04DX003 (ip), vehicle: Klucel (hydroxypropylcellulose) (HPC) 102 % of control | dose: 200.0 mg/kg/injection, schedule: Q01DX009 (ip), vehicle: Klucel (hydroxypropylcellulose) (HPC) 94 % of control | dose: 200.0 mg/kg/injection, schedule: Q04DX003 (ip), vehicle: Klucel (hydroxypropylcellulose) (HPC) 98 % of control | dose: 400.0 mg/kg/injection, schedule: Q01DX009 (ip), vehicle: Klucel (hydroxypropylcellulose) (HPC) 92 % of control | dose: 400.0 mg/kg/injection, schedule: Q04DX003 (ip), vehicle: Klucel (hydroxypropylcellulose) (HPC) 101 % of control

CCOC(=O)CCC(NC(=O)c1cc([N+](=O)[O-])cc([N+](=O)[O-])c1)C(=O)OCC (stereo not given)
inactive: [5] 100 % of control | [6] 97 % of control | [7] 97 % of control

CCCCCCCCNC(=O)c1ccc([N+](=O)[O-])s1
inactive: dose: 100.0 mg/kg/injection, schedule: Q01DX005 (ip), vehicle: saline 94 % of control | dose: 200.0 mg/kg/injection, schedule: Q01DX005 (ip), vehicle: saline 94 % of control | dose: 400.0 mg/kg/injection, schedule: Q01DX005 (ip), vehicle: saline 94 % of control

Source: PubChem BioAssay AID248 (DTP/NCI, 2004)
